According to publication PMC8445441, “Elucidating the mechanism by which synthetic helper peptides sensitize Pseudomonas aeruginosa to multiple antibiotics” (PLoS Pathogens, 2021):
Entries after “also recorded” stand apart in the source; their conditions may differ. Positions of bridges follow the written chain, without caps; N, C: chain ends. Non-standard residues stand in square brackets, D forms with d. Residues, ends and D or L forms follow the SMILES beside them. *: point of attachment. X1 = CC[C@H](C)CCCCC(=O)*; Dab = NCC[C@H](N)C(=O)O

Legend:
[1] = mice
From the text: Since D-11 contains five positively charged amino acids, it is easier to bind to bacterial negatively charged membrane components.
However, we still carried out high-dose toxicity tests in mice according to the recommendations.

[2] = cited from earlier work
P. aeruginosa PAO1 = assay: microbe, parasite or virus in culture; settings: for MICac: the MIC for the antibiotic in the combination: S3 Table, PAO1
Outline: (§1)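 Values are lowest concentrations showing no visible growth after 18 h at 37 °C. Drugs were serially halved in MHB and combined with equal volumes of a roughly 1 × 10^6 CFU/mL suspension, following CLSI guidance, in triplicate.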

HEK-293 cells = settings: high concentration of D-11; cited from earlier work
From the text: Interes ... || Response: This comment is valuable. […] We believe that it is a safe drug candidate.

P. aeruginosa AUMC-Pa-2 = settings: strain AUMC-Pa-2, unit not given
Outline: as §1

P. aeruginosa AUMC-Pa-1 = settings: strain AUMC-Pa-1, unit not given
Outline: as §1

P. aeruginosa HM-214 = system: P. aeruginosa HM-214; design: MICa: MIC of the antibiotic / MICac: MIC of the antibiotic in the combination: unit not given beside the values; settings: strain HM-214, unit not given
Outline: as §1

[3] = system: clinical P. aeruginosa isolates; assay: microbe, parasite or virus in culture; settings: clinical isolates, 18 h
Outline: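 MIC is the lowest drug concentration showing no visible growth after 18 h at 37 °C. Two-fold dilutions in MHB were combined with an equal volume of bacterial suspension (about 1 × 10^6 CFU/mL), following CLSI broth microdilution, in triplicate.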

P. aeruginosa NR-31041 = assay: microbe, parasite or virus in culture; design: MICa: MIC of the antibiotic / MICac: MIC of the antibiotic in the combination: unit not given beside the values; settings: strain NR-31041, unit not given
Outline: as §1

P. aeruginosa PAK = assay: microbe, parasite or virus in culture; design: MICa: MIC of the antibiotic / MICac: MIC of the antibiotic in the combination: unit not given beside the values; settings: strain PAK, unit not given
Outline: as §1

P. aeruginosa ATCC27853 = assay: microbe, parasite or virus in culture; design: MICa: MIC of the antibiotic / MICac: MIC of the antibiotic in the combination: unit not given beside the values; settings: strain ATCC27853, unit not given
Outline: as §1

P. aeruginosa NR-31040 = assay: microbe, parasite or virus in culture; design: MICa: MIC of the antibiotic / MICac: MIC of the antibiotic in the combination: unit not given beside the values; settings: strain NR-31040, unit not given
Outline: as §1

P. aeruginosa PA14 = assay: microbe, parasite or virus in culture; design: MICa: MIC of the antibiotic / MICac: MIC of the antibiotic in the combination: unit not given beside the values; settings: strain PA14, unit not given
Outline: as §1

P. aeruginosa AUMC-Pa-3 = assay: microbe, parasite or virus in culture; settings: strain AUMC-Pa-3, unit not given
Outline: as §1

P. aeruginosa AUMC-Pa-4 = assay: microbe, parasite or virus in culture; settings: strain AUMC-Pa-4, unit not given
Outline: as §1

P. aeruginosa AUMC-Pa-5 = assay: microbe, parasite or virus in culture; settings: strain AUMC-Pa-5, unit not given
Outline: as §1

P. aeruginosa AUMC-Pa-6 = assay: microbe, parasite or virus in culture; settings: strain AUMC-Pa-6, unit not given
Outline: as §1

PAO1 in human blood = assay: Antimicrobial activity in blood (ex vivo bacteremia model); type: cell-based, Pseudomonas aeruginosa; settings: human blood, 5×10^7 CFU/mL PAO1; antibiotic combined with D-11 (4 μM); 4 hours
Procedure: Human blood of healthy individuals was obtained from Sanquin (certified Dutch organization responsible for meeting the need in healthcare for blood and blood products, https://www.sanquin.nl/) and was infected with 5×10^7 CFU/mL of PAO1. The blood was distributed at 0.5 mL in 2 mL Eppendorf tubes and treated with the antibiotics and peptides at the indicated concentrations at 37 °C for 4 hours. The samples were decimal serially diluted in PBS. Drops of 10 μL of each dilution on LB agar to track the development of infection. The experiment was performed in triplicate.

CC[C@@H](C)[C@@H](NC(=O)[C@H](N)CCCNC(=N)N)C(=O)N[C@@H](C(=O)N[C@H](CCC(N)=O)C(=O)N[C@H](CCCNC(=N)N)C(=O)N[C@@H](C(=O)N[C@H](CCCCN)C(=O)N[C@H](CCCCN)C(=O)N[C@H](Cc1c[nH]c2ccccc12)C(=O)N[C@H](CC(C)C)C(=O)N[C@H](CCCNC(=N)N)C(N)=O)[C@H](C)CC)C(C)C [Peptide D-11] (H-[dR][dI][dV][dQ][dR][dI][dK][dK][dW][dL][dR]-NH2)
side effects in vivo (in words) ([1]; 10 mg/kg D-11): no obvious side effects were observed
irritation after subcutaneous injection (in words) ([1]; subcutaneous 20 mg/kg D-11): slightly irritating
stability in plasma (in words) [2]: stable in plasma
MIC of the peptide (P. aeruginosa PAO1; PAO1, 18 h): 32 µM
MICb: the MIC of D-11 (P. aeruginosa PAO1; PAO1, 18 h): 32 µM
MICb: the MIC of the peptide (P. aeruginosa PAO1; PAO1, 18 h): 32 µM
toxicity to HEK-293 cells (in words) (HEK-293 cells): not toxic to HEK-293 cells; also recorded: no toxicity to HEK-293 cells

CC[C@H](C)CCCCC(=O)N[C@@H](CCN)C(=O)N[C@H](C(=O)N[C@@H](CCN)C(=O)N[C@H]1CCNC(=O)[C@H]([C@@H](C)O)NC(=O)[C@H](CCN)NC(=O)[C@H](CCN)NC(=O)[C@H](CC(C)C)NC(=O)[C@@H](Cc2ccccc2)NC(=O)[C@H](CCN)NC1=O)[C@@H](C)O [Polymyxin B] (X1-[Dab]T[Dab][Dab][Dab][dF]L[Dab][Dab]T; lactam 4-C (inferred); N-terminus assumed)
MICa: MIC of the antibiotic (P. aeruginosa AUMC-Pa-2; antibiotic alone): 0.25
MICac: MIC of the antibiotic in the combination (P. aeruginosa AUMC-Pa-2; with D-11 at MICbc 4): 0.016
MICa: MIC of the antibiotic (P. aeruginosa AUMC-Pa-1; antibiotic alone): 0.25
MICac: MIC of the antibiotic in the combination (P. aeruginosa AUMC-Pa-1; with D-11 at MICbc 4): 0.016
MICa: MIC of the antibiotic (P. aeruginosa HM-214; antibiotic alone): 0.25
MICac: MIC of the antibiotic in the combination (P. aeruginosa HM-214; with D-11 at MICbc 4): 0.031
Antibiotic sensibility (MIC) of clinical P. aeruginosa isolate AUMC-Pa-1 [3]: 0.25 µM
Antibiotic sensibility (MIC) of clinical P. aeruginosa isolate AUMC-Pa-2 [3]: 0.25 µM
Antibiotic sensibility (MIC) of clinical P. aeruginosa isolate AUMC-Pa-3 [3]: 0.125 µM
Antibiotic sensibility (MIC) of clinical P. aeruginosa isolate AUMC-Pa-4 [3]: 1 µM
Antibiotic sensibility (MIC) of clinical P. aeruginosa isolate AUMC-Pa-5 [3]: 1 µM
Antibiotic sensibility (MIC) of clinical P. aeruginosa isolate AUMC-Pa-6 [3]: 1 µM
Antibiotic sensibility (MIC) of clinical P. aeruginosa isolate HM-214 [3]: 0.25 µM
Antibiotic sensibility (MIC) of clinical P. aeruginosa isolate NR-31040 [3]: 0.25 µM
Antibiotic sensibility (MIC) of clinical P. aeruginosa isolate NR-31041 [3]: 0.125 µM
MICa: MIC of the antibiotic (P. aeruginosa NR-31041; antibiotic alone): 0.125
MICac: MIC of the antibiotic in the combination (P. aeruginosa NR-31041; with D-11 at MICbc 4): 0.008
MICa: MIC of the antibiotic (P. aeruginosa PAK; antibiotic alone): 0.125
MICac: MIC of the antibiotic in the combination (P. aeruginosa PAK; with D-11 at MICbc 4): 0.008
MICa: MIC of the antibiotic (P. aeruginosa ATCC27853; antibiotic alone): 0.125
MICac: MIC of the antibiotic in the combination (P. aeruginosa ATCC27853; with D-11 at MICbc 4): 0.008
MICa: MIC of the antibiotic (P. aeruginosa NR-31040; antibiotic alone): 0.25
MICac: MIC of the antibiotic in the combination (P. aeruginosa NR-31040; with D-11 at MICbc 4): 0.031
MICa: MIC of the antibiotic (P. aeruginosa PA14; antibiotic alone): 0.125
MICac: MIC of the antibiotic in the combination (P. aeruginosa PA14; with D-11 at MICbc 4): 0.008
MICa: MIC of the antibiotic (P. aeruginosa AUMC-Pa-3; antibiotic alone): 0.125
MICac: MIC of the antibiotic in the combination (P. aeruginosa AUMC-Pa-3; with D-11 at MICbc 4): 0.002
MICa: MIC of the antibiotic (P. aeruginosa AUMC-Pa-4; antibiotic alone): 1
MICac: MIC of the antibiotic in the combination (P. aeruginosa AUMC-Pa-4; with D-11 at MICbc 4): 0.5
MICa: MIC of the antibiotic (P. aeruginosa AUMC-Pa-5; antibiotic alone): 1
MICac: MIC of the antibiotic in the combination (P. aeruginosa AUMC-Pa-5; with D-11 at MICbc 4): 0.125
MICa: MIC of the antibiotic (P. aeruginosa AUMC-Pa-6; antibiotic alone): 1
MICac: MIC of the antibiotic in the combination (P. aeruginosa AUMC-Pa-6; with D-11 at MICbc 4): 0.25
MIC of polymyxin B (P. aeruginosa PAO1; 1×MIC used as positive control): 0.5 µg/mL
MICa: the MIC of antibiotics (P. aeruginosa PAO1; PAO1, 18 h): 0.25 µM
MICac: the MIC for the antibiotic in the combination (P. aeruginosa PAO1; with 2 μM D-11): 0.004 µM
MICac: the MIC for the antibiotic in the combination (P. aeruginosa PAO1; with 4 μM D-11): 0.001 µM
antibacterial effect in blood (in words) (PAO1 in human blood): relative week antibacterial effects
